The nature of series [1]: MRI of contrast agent diffusion after injection into brain ECS of rat caudate nucleus. Type of series: in vivo. Here is the method:
In this exemplary embodiment, the rat 10 is anesthetized and incised in the scalp along the sagittal suture. The periosteum was separated and the bregma was exposed. 1 μL Gd-DTPA with concentration range of 5 to 25 mM is injected into the brain ECS of the rat caudate nucleus at the rate of 0.1 μL/min.
The microsyringe is slowly removed 5 minutes after injecting. In FIG. 4, the rat narcotized is placed in the wrist coil 30 in the prone position and sent into the imaging device 20 with the examination couch 12. A T1 weighted sequence is used for the MRI scanning MR images from the imaging device 20 are processed in the image-processing unit of the controlling device 40.
FIG. 6 is a curve of SI increment (ASI) vs. time of the contrast agents along X direction of FIG. 5 at the spots respectively 1 mm, 2 mm, and 3 mm away from the injection site. The increment of SI reflected the concentration increment of the contrast agents. In FIG. 6, the peak of ASI appears in the region which is 1 mm away from the injection site about 1 h after injection, and then value of ASI slowly falls down.

A short description of series [2]: Linear fitting of MRI signal intensity vs contrast agent concentration in agarose. Type of series: physicochemical. The protocol: According to the curve, when the concentration of the contrast agents is in the range of 0-5 mM, the SI increased with the concentration. The concentration is related to the SI. In the curve, the abscissa is the concentration of the contrast agent which reflects the mobility of the ISF in brain ECS and the ordinate is the SI of MRI. It is known by the persons skilled in art that the SI here may be the directly SI or the result which is calculated indirectly from the SI such as T1. In the exemplary embodiment, the contrast agents are Gd-DPTA. Other non-ferromagnetic, non-neurotoxicity and extracellular contrast agents, such as T1 positive MRI contrast agent, also can be used here.
According to the curve shown in FIG. 2, the liner equation of the curve is obtained as below
In the four experiments, injecting contrast agents with different concentration range are into agarose, the distribution of SI of the MRI is measured in different magnetic field intensity or different MRI sequence. When quantitative measuring the contrast agents via the SI, the value of K and B can be determined via linear fitting according to the experimental conditions,
FIG. 3 is a fitting curve of the SI and the concentration of the contrast agents corresponding to the Experiment 1 shown in Table 1. It is the measurement result under the circumstances that the magnetic field intensity is 1.5T, the MRI sequence is FLASH 2D, the contrast agent is Gd-DTPA and the concentration range is 0 to 1.2 mM. According to the fitting curve, the value of K is 337.434 and the value of B is 184.344.

SMILES strings stand for the structures.

As to `O=C([O-])CN(CCN(CC(=O)[O-])CC(=O)O)CCN(CC(=O)[O-])CC(=O)O.[Gd+3]` [Gd-DTPA], the “Time of peak of SI increment (ASI) after injection” value in series [1] (1 mm away from injection site along X direction, 1 μL 5 to 25 mM into caudate nucleus) is “about 1 h”. Further, in series [1] (spots 2 mm and 3 mm away from injection site (cortex)), the “Course of SI increment (ASI, concentration increment) over time” value is recorded as “first slowly increases then slowly decreases”. Moreover, the “Value of K (slope of SI vs concentration)” value in series [2] (Experiment 1: 1.5T, FLASH 2D, concentration range 0-1.2 mM) is listed as 337.434; in series [2] (Experiment 2: 3T, FLASH 2D, concentration range 0-1.2 mM) it was 247.834; in series [2] (Experiment 3: 3T, 3D MP-RAGE, concentration range 0-0.5 mM), 1913.686; in series [2] (Experiment 4: 3T, 3D MP-RAGE, concentration range 0-1 mM), 1174.5.

The values above are taken from US20120238865A1, “Method for Measuring the Physiological Parameters of Brain Interstitial Fluid and Brain Extracellular Space” (priority 2009, published 2012).
